From paper PMC5358917, “Mechanism of H2S Oxidation by the Dissimilatory Perchlorate-Reducing Microorganism Azospira suillum PS” (mBio, 2017)

Assays:
[1] = biological target: T1, PcrAB (perchlorate reductase) (Azospira oryzae, UniProt G8QM55); assay: steady-state turnover, Cline assay of sulfide; type: biochemical; settings: H2S as electron donor; 0.2 uM PcrAB; anaerobic
T1 construct: gene Dsui_0149; native PcrAB complex purified anoxically from wild-type PS cells, three-column protocol; periplasmic enzyme; with Perchlorate reductase subunit beta
T1 sequence (G8QM55 29-927): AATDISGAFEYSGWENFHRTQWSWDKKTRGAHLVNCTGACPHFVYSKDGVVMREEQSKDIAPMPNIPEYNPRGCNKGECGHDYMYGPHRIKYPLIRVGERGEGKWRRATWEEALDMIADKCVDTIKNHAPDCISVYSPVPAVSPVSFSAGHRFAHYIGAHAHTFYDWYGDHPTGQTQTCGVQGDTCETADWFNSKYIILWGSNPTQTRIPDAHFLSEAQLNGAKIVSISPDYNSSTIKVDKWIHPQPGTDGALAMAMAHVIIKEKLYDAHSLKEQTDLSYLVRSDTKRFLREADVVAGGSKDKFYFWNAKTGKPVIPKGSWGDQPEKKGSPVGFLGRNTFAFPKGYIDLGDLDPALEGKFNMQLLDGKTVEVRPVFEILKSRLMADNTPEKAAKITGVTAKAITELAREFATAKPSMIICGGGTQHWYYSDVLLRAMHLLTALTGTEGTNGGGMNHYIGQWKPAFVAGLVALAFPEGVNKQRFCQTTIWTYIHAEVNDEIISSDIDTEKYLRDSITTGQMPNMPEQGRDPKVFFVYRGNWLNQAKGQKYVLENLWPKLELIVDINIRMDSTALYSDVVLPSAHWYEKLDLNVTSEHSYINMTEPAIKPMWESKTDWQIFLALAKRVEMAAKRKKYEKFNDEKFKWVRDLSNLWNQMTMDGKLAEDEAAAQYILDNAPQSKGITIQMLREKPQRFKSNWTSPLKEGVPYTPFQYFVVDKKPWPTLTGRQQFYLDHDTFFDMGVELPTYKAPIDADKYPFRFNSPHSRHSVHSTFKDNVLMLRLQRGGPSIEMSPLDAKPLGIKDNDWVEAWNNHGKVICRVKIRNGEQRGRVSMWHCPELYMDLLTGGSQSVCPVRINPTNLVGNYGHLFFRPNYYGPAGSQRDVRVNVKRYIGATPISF
T1 sequence (G8QM54 1-333 partner): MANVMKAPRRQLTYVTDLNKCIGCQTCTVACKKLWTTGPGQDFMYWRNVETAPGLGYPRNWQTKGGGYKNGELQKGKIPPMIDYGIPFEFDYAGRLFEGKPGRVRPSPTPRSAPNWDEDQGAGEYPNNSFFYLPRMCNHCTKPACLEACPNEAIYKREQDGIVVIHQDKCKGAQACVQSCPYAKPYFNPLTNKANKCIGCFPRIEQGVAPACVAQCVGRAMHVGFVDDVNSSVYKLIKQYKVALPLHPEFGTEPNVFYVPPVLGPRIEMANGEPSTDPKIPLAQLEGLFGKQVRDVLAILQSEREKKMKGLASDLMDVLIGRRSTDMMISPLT

[2] = biological target: T1, PcrAB (perchlorate reductase); assay: steady-state turnover, ion chromatography of perchlorate and Cline assay of sulfide; type: biochemical; settings: H2S as electron donor; 0.2 uM PcrAB; anaerobic

Row | Structure (SMILES) | steady-state turnover, Cline assay of sulfide [1] | steady-state turnover, ion chromatography of perchlorate and Cline assay of sulf [2]
1 | O=[N+]([O-])O [nitrate] | purified PcrAB also mediated H2S oxidation coupled to nitrate reduction | –
2 | [O-][Cl+3]([O-])([O-])O [perchlorate] | – | Our results indicated that PcrAB independently mediated PSOX
